One assay concerns the target ACE (Homo sapiens, UniProt P12821). In words: Assay of ACE inhibitory activity (HHL hydrolysis, HPLC of hippuric acid). It counts as biochemical. The note with it: in vitro; substrate HHL, borate buffer, 37 °C, 5 min coincubation with HHL, 30 min reaction, HCl stop; 7 concentrations; HPLC C18 at 228 nm; GraphPad Prism 7.0. As for the experimental part: IC50 refers to the semi-inhibitory concentration; here, the principle of in vitro IC50 determination of the potential ACE inhibitory peptide is that ACE can hydrolyse HHL into […] and dipeptide. HHL and tetrapeptide are competitive, and when ACE binds to the tetrapeptide, it will reduce the production of the product […]; the IC50 activity of the tetrapeptide is when it is reduced by half of the original concentration. The water bath temperature was controlled at 37 °C, and the initial mass concentration of each tetrapeptide was […]. The tetrapeptide was diluted with borate buffer solution into 7 concentration gradients, and coincubated with HHL buffer for 5 min. Then, the ACE solution was added to initiate the reaction, and the reaction was terminated by the addition of HCl after 30 min of system reaction. Afterwards, the reaction was analysed on a C18 column, with HPLC detection at 228 nm and an injection volume of 10 μL. The mobile phases were water and acetonitrile at 75% and 25%, respectively, with a flow rate of 1 mL/min, and isocratic elution for 7 min (acetonitrile and water containing 0.1% trifluoroacetic acid). ACE inhibition was calculated as ACE inhibition = ((b − c) − (a − c))/(b − c) × 100% (a: peak area of hippuric acid in the experimental group; b: peak area of hippuric acid in the blank group; c: peak area of hippuric acid in the control group), and the inhibition rate was converted into IC50 values by the software graphpad prism 7.0.

The target in assay [1] is Angiotensin-converting enzyme (ACE) (UniProt P12821).

Residues, ends and D or L forms follow the SMILES beside them.

Chain of Angiotensin-converting enzyme (ACE) (P12821 30-1306): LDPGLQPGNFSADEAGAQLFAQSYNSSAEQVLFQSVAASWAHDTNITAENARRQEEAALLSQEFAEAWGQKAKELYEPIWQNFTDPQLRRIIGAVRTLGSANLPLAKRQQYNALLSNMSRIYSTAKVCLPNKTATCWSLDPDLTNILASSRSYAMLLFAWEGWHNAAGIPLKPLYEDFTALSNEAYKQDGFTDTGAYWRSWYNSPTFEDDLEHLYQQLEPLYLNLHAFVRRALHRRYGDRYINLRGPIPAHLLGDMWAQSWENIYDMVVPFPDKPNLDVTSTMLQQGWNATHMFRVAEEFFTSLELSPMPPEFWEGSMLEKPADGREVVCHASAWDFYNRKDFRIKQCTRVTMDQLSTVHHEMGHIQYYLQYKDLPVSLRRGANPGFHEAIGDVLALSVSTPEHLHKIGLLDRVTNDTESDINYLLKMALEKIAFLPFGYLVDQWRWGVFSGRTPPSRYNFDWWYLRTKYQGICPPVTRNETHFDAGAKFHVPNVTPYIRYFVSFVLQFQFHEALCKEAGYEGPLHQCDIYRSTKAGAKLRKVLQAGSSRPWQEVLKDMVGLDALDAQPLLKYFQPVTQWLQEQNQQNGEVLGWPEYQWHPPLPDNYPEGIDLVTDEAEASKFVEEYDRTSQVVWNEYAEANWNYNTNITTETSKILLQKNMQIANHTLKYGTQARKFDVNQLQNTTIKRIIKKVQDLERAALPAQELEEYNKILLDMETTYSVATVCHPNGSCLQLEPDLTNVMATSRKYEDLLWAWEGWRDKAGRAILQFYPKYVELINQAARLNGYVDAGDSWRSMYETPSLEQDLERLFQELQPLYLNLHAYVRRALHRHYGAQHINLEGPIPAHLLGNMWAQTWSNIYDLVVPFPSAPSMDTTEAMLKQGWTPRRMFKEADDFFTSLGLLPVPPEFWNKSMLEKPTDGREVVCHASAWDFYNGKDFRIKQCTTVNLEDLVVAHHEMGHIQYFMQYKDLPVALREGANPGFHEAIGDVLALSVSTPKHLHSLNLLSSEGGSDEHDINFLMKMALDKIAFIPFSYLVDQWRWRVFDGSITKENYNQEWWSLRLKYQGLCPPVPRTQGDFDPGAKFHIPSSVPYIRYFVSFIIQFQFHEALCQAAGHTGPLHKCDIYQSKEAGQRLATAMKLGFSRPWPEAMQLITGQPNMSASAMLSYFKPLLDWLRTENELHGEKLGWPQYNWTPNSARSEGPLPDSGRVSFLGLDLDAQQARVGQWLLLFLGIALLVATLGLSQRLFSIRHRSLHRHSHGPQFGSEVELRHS
Chain of ACE (P12821 30-1306, species assumed): as the sequence (P12821 30-1306) above

In general, IC50 refers to the concentration that inhibits the measured activity by half. As to `NCC(=O)NCC(=O)N[C@@H](CO)C(=O)NCC(=O)O` [GGSG] (H-GGSG-OH), the IC50 on ACE was more than 5000 µM.

Take `N[C@@H](Cc1c[nH]c2ccccc12)C(=O)N[C@@H](Cc1c[nH]c2ccccc12)C(=O)N[C@@H](CC(=O)O)C(=O)N[C@@H](Cc1c[nH]c2ccccc12)C(=O)O` [WWDW] (H-WWDW-OH): the IC50 at ACE amounted to 36.8 ± 1.32 µM. Same read-out and setting: then `N=C(N)NCCC[C@H](NC(=O)[C@@H](N)Cc1c[nH]c2ccccc12)C(=O)N[C@@H](Cc1ccccc1)C(=O)N[C@@H](Cc1ccccc1)C(=O)O` [WRFF] (H-WRFF-OH), with 141 ± 3.9 µM. Still for that read-out and setting: as for `N=C(N)NCCC[C@H](NC(=O)[C@@H](N)CCCNC(=N)N)C(=O)N[C@@H](Cc1ccc(O)cc1)C(=O)N[C@@H](CCC(N)=O)C(=O)O` [RRYQ] (H-RRYQ-OH), the figure is 115 ± 6.15 µM.

For `NCCCC[C@H](NC(=O)[C@H](Cc1c[nH]c2ccccc12)NC(=O)[C@H](Cc1ccc(O)cc1)NC(=O)[C@@H](N)Cc1ccc(O)cc1)C(=O)O` [YYWK] (H-YYWK-OH), the IC50 at ACE was found to be 20 ± 8.19 µM. Regarding `N=C(N)NCCC[C@H](N)C(=O)N[C@@H](Cc1c[nH]c2ccccc12)C(=O)N[C@@H](Cc1c[nH]c2ccccc12)C(=O)N[C@@H](CC(=O)O)C(=O)O` [RWWD] (H-RWWD-OH), on ACE, the IC50 is 129 ± 8.32 µM. The molecule tetrapeptide RRYQ came in with an IC50 of inhibition of ACE activity (hydrolysis of HHL to hippuric acid, HPLC at 228 nm, 37 °C) in assay [1] of 115 µM. Still for that read-out and setting: as for tetrapeptide WFRV, the figure is 31.8 µM.

On to `C[C@@H](O)[C@H](NC(=O)[C@H](Cc1c[nH]c2ccccc12)NC(=O)[C@@H](N)Cc1c[nH]c2ccccc12)C(=O)N[C@@H](Cc1ccc(O)cc1)C(=O)O` [WWTY] (H-WWTY-OH), for which, at ACE, the IC50 amounted to 28.5 ± 0.99 µM. As to `NC(=O)C[C@H](NC(=O)[C@H](Cc1c[nH]c2ccccc12)NC(=O)[C@@H](N)Cc1c[nH]c2ccccc12)C(=O)N[C@@H](Cc1c[nH]c2ccccc12)C(=O)O` [WWNW] (H-WWNW-OH), the IC50 on ACE was 26.4 ± 3.81 µM. Still for that read-out and setting: then `N[C@@H](CO)C(=O)NCC(=O)NCC(=O)NCC(=O)O` [SGGG] (H-SGGG-OH), with more than 5000 µM; and `CC(C)[C@H](NC(=O)[C@H](CCCNC(=N)N)NC(=O)[C@H](Cc1ccccc1)NC(=O)[C@@H](N)Cc1c[nH]c2ccccc12)C(=O)O` [WFRV] (H-WFRV-OH), with 31.8 ± 0.83 µM. Same read-out and setting: then `N=C(N)NCCC[C@H](NC(=O)[C@@H](N)Cc1c[nH]c2ccccc12)C(=O)N[C@@H](CCC(N)=O)C(=O)N[C@@H](Cc1ccccc1)C(=O)O` [WRQF] (H-WRQF-OH), with 29.6 ± 6.75 µM; and `N[C@@H](Cc1c[nH]c2ccccc12)C(=O)N[C@@H](Cc1ccccc1)C(=O)N[C@@H](CO)C(=O)N[C@@H](Cc1c[nH]c2ccccc12)C(=O)O` [WFSW] (H-WFSW-OH), with 148 ± 14.3 µM.

B1: tetrapeptide WRQF (peptide)
peptide: WRQF
For the molecule B1, in assay [1], the IC50 of inhibition of ACE activity (hydrolysis of HHL to hippuric acid, HPLC at 228 nm, 37 °C) turned out to be 29.6 µM.

B2: tetrapeptide WWDW (peptide)
peptide: WWDW
In assay [1], B2 yielded an IC50 of inhibition of ACE activity (hydrolysis of HHL to hippuric acid, HPLC at 228 nm, 37 °C) of 36.8 µM.

B3: tetrapeptide YYWK (peptide)
peptide: YYWK
As to B3, in assay [1], the IC50 of inhibition of ACE activity (hydrolysis of HHL to hippuric acid, HPLC at 228 nm, 37 °C) stood at 20 µM.

B4: tetrapeptide WFSW (peptide)
peptide: WFSW
Molecule B4 showed an IC50 of inhibition of ACE activity (hydrolysis of HHL to hippuric acid, HPLC at 228 nm, 37 °C) in assay [1] of 148 µM.

B5: tetrapeptide WWTY (peptide)
peptide: WWTY
The molecule B5 registered an IC50 of inhibition of ACE activity (hydrolysis of HHL to hippuric acid, HPLC at 228 nm, 37 °C) in assay [1] of 28.5 µM.

B6: tetrapeptide RWWD (peptide)
peptide: RWWD
Take B6: the IC50 of inhibition of ACE activity (hydrolysis of HHL to hippuric acid, HPLC at 228 nm, 37 °C) in assay [1] was found to be 129 µM.

B7: tetrapeptide WRFF (peptide)
peptide: WRFF
In assay [1], B7 had an IC50 of inhibition of ACE activity (hydrolysis of HHL to hippuric acid, HPLC at 228 nm, 37 °C) of 141 µM.

B8: tetrapeptide WWNW (peptide)
peptide: WWNW
B8 registered an IC50 of inhibition of ACE activity (hydrolysis of HHL to hippuric acid, HPLC at 228 nm, 37 °C) in assay [1] of 26.4 µM.
